Series [1] can be described thus: Substrate solubility in natural deep eutectic solvent (polarizing microscope). It counts as physicochemical. The settings on record: in natural deep eutectic solvent C-Gly (choline chloride-glycerin), 60° C., 200 rpm. How it is done: 10 g of natural deep eutectic solvent (C-Gly) was accurately weighed and placed in a thermostatic shaking water bath at 60° C. After the temperature was constant, 10 mg of lauric acid was weighed and added thereto, and the mixture was shaken at 200 rpm for 30 min. Then a drop was taken out by a capillary and detected under a polarizing microscope. […] The final substrate solubility was calculated according to the following formula: S=mt×10/1000 (1).
Herein, S is the solubility and mt is the total addition amount of substrate.

A short description of series [2]: CMC value determined by conductivity method. It counts as physicochemical. The settings on record: aqueous solution. How it is done:
The CMC value is determined by a conductivity method: The relationship between the conductivity of an ionic surfactant aqueous solution and the concentration is used to draw a ∧m-C^1/2 curve, and the CMC value is derived from the turning point of the curve.
∧m=K/C. The unit of ∧m is S·m^2/mol, and the unit of C is mol/L.
For a strong electrolyte, if the temperature is constant, the molar conductivity ∧m of the strong electrolyte solution has a linear relationship with the concentration of the solution c^1/2 in an extremely low concentration range. For a colloidal electrolyte, the conductivity and molar conductivity of a dilute solution change in the same way as the strong electrolyte.

With `CCCCCCCCCCCC(=O)O` [lauric acid], the solubility in series [1] amounted to 24.98 g/100 g.
Consider `CCCCCCCCCCCC(=O)NCC(=O)O` [lauroyl glycine], for which, in series [2], the CMC value came out at 0.0044 mol/L.
On to “Gemini lauroyl lysine [Gemini lauroyl amino acid]”, for which, in series [2], the CMC value was found to be 0.0044 mol/L.

For the origin of these results see patent US11319565B2, “Method for preparing lipoamino acids based on deep eutectic solvents” (Jiangnan University, priority 2019, dated 2022).
